# Experimental data from patent US9714247B2, “Multiple kinase pathway inhibitors” (Mannkind Corporation, priority 2012, dated 2017).
# Like-named read-outs stand apart in the source and are kept apart here.
# Assays:
# Src = Src (Homo sapiens (Human), UniProt P12931); test: biochemical
# Ramos = test: CellTiter-Glo proliferation/viability assay; format: cell-based, human; settings: read-out: Ramos EC50
# DoHH2 = test: CellTiter-Glo proliferation/viability assay; format: cell-based, human; settings: Homo sapiens, DOHH-2
# Lyn [1] = biological target: T1, Lyn (Homo sapiens (Human), UniProt P07948); test: biochemical
# T1 sequence (P07948 whole entry): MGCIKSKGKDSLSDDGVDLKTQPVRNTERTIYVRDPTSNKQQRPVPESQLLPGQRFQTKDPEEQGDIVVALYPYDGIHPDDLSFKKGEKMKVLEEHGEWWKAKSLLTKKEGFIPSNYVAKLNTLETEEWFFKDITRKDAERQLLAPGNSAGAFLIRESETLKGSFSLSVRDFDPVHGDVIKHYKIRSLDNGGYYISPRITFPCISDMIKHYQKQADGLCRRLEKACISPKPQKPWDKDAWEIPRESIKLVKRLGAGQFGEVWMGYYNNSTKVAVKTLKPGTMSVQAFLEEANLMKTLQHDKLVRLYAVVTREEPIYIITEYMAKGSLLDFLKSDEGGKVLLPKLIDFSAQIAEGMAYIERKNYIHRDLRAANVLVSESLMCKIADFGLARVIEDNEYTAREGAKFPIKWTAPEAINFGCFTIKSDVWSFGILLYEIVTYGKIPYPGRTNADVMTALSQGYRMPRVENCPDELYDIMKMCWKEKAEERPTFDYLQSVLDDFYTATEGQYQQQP
# BTK = BTK (Homo sapiens (Human), UniProt Q06187)
# BTK, sequence (Q06187 whole entry): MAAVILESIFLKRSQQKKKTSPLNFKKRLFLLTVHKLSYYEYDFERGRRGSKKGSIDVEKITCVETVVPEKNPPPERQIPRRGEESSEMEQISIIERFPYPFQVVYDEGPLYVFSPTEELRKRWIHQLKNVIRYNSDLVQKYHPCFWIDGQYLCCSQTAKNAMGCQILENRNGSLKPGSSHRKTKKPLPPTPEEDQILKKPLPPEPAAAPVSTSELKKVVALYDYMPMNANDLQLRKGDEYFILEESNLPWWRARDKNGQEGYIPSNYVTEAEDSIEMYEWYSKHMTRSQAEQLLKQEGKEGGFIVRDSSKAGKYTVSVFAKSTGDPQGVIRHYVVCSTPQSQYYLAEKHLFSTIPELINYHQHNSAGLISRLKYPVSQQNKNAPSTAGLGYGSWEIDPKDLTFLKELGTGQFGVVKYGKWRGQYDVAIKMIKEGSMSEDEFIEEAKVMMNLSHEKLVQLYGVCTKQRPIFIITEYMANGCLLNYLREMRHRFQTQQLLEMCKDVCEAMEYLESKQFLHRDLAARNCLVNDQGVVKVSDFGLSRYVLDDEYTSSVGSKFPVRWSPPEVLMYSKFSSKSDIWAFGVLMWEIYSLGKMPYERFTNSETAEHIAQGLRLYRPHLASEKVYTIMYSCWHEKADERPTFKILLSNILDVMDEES
# Lyn [2] = biological target: T1, Lyn; settings: read-out: Lyn IC50
# Src, sequence (P12931 whole entry, looked up): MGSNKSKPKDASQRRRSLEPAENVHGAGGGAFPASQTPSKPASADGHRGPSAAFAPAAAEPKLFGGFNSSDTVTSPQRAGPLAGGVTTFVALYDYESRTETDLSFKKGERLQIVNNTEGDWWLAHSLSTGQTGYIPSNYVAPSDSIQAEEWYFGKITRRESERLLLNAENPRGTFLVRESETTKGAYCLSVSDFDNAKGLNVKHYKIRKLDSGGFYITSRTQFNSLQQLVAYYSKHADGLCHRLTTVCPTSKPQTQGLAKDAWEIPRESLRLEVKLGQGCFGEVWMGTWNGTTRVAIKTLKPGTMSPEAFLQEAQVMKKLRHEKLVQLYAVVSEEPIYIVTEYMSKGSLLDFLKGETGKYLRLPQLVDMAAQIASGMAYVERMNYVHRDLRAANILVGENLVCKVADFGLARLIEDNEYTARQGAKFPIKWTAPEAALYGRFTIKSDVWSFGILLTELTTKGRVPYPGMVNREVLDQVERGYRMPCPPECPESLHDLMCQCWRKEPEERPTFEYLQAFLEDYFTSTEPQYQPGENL
Structure (SMILES),IC50 (Src) [nM],"EC50 (Ramos; Homo sapiens, Ramos, 48 h) [nM]",IC50 (Lyn [1]) [nM],IC50 (BTK) [nM],"EC50 (Ramos; Homo sapiens, Ramos, 48 hrs) [nM]",IC50 (Lyn [2]) [nM],IC50 (Lyn [1]; Lyn IC50) [nM],IC50 (BTK; read-out: BTK IC50) [nM],EC50 (Ramos; 48 hrs) [nM],"EC50 (DoHH2; 48 hrs, read-out: DoHH2 EC50) [nM]","EC50 (DoHH2; Table 4, DoHH2 cells, read-out: EC50 (Proliferation)) [nM]"
"CCn1c(=O)c(-c2ccccc2)cc2cnc(Nc3ccncn3)cc21 [Compound 60, 1-Ethyl-3-phenyl-7-(pyrimidin-4-ylamino)-1H-[1,6]naphthyridin-2-one]",100 to 1000,> 10000,1000 to 5000,100 to 1000,,,,,,1000 to 10000,
"CCn1c(=O)c(-c2ccccc2)cc2cnc(Nc3cc(N4CCN(CCO)CC4)nc(C)n3)cc21 [Compound 5, 1-Ethyl-7-{6-[4-(2-hydroxy-ethyl)-piperazin-1-yl]-2-methyl-pyrimidin-4-ylamino}-3-phenyl-1H-[1,6]naphthyridin-2-one]",1000 to 5000,> 10000,100 to 1000,100 to 1000,,,,,,1000 to 10000,
CCn1c(=O)c(C#CC(C)(C)O)cc2cnc(Nc3ccc(C)cn3)cc21 [Compound 54],100 to 1000,,100 to 1000,1000 to 5000,> 10000,,,,,1000 to 10000,
"CCn1c(=O)c(-c2ccccc2)cc2cnc(Nc3ccc(OC)nn3)cc21 [Compound 61, 1-Ethyl-7-(6-methoxy-pyridazin-3-ylamino)-3-phenyl-1H-[1,6]naphthyridin-2-one]",100 to 1000,,1000 to 5000,1000 to 5000,1000 to 10000,,,,,< 1000,
"COCCn1c(=O)c(C(C)C)cc2cnc(Nc3ccc(F)cn3)cc21 [Compound 128, 7-((5-fluoropyridin-2-yl)amino)-3-isopropyl-1-(2-methoxyethyl)-1,6-naphthyridin-2(1H)-one]",1000 to 5000,,1000 to 5000,1000 to 5000,> 10000,,,,,1000 to 10000,
"CCn1c(=O)c(-c2ccccc2)cc2cnc(Nc3ccnc(OC)n3)cc21 [Compound 62, 1-Ethyl-7-(2-methoxy-pyrimidin-4-ylamino)-3-phenyl-1H-[1,6]naphthyridin-2-one]",100 to 1000,1000 to 10000,,1000 to 5000,,,1000 to 5000,,,< 1000,
"CCn1c(=O)c(-c2ccccc2C)cc2cnc(Nc3ccc(C)cn3)cc21 [Compound 45, 1-ethyl-7-(5-methylpyr—idin-2-ylamino)-3-o-tolyl-1,6-naphthyridin-2(1H)-one]",100 to 1000,> 10000,100 to 1000,100 to 1000,,100 to 1000,,100 to 1000,,> 10000,
"O=c1c(-c2c(F)cccc2F)cc2cnc(Nc3ccc(F)cn3)cc2n1CCO [Compound 125, 3-(2,6-difluorophenyl)-7-((5-fluoropyridin-2-yl)amino)-1-(2-hydroxyethyl)-1,6-naphthyridin-2(1H)-one]",100 to 1000,> 10000,100 to 1000,100 to 1000,,,,,,< 1000,
"CCn1c(=O)c(-c2ccccc2)cc2cnc(Nc3cn(CCOC)cn3)cc21 [Compound 114, 1-ethyl-7-((1-(2-methoxyethyl)-1H-imidazol-4-yl)amino)-3-phenyl-1,6-naphthyridin-2(1H)-one]",100 to 1000,> 10000,1000 to 5000,,,,,< 100,,1000 to 10000,
"O=c1c(-c2c(Cl)cccc2Cl)cc2cnc(Nc3ccc(F)cn3)cc2n1C1CCOC1 (single isomer, unassigned) [Compound 147, (S or R)-3-(2,6-dichlorophenyl)-7-((5-fluoropyridin-2-yl)amino)-1-(tetrahydrofuran-3-yl)-1,6-naphthyridin-2(1H)-one]",< 100,> 10000,< 100,< 100,,,,,,< 1000,

# Continued, in another order:
IC50 (Src) [nM],"EC50 (Ramos; Homo sapiens, Ramos, 48 h) [nM]",IC50 (Lyn [1]) [nM],IC50 (BTK) [nM],"EC50 (Ramos; Homo sapiens, Ramos, 48 hrs) [nM]",IC50 (Lyn [2]) [nM],IC50 (Lyn [1]; Lyn IC50) [nM],IC50 (BTK; read-out: BTK IC50) [nM],EC50 (Ramos; 48 hrs) [nM],Structure (SMILES),"EC50 (DoHH2; 48 hrs, read-out: DoHH2 EC50) [nM]","EC50 (DoHH2; Table 4, DoHH2 cells, read-out: EC50 (Proliferation)) [nM]"
100 to 1000,> 10000,100 to 1000,,,100 to 1000,,,,"CCN(CC)CCOc1ccc(Nc2cc3c(cn2)cc(C(C)C)c(=O)n3-c2ccccc2)nc1 [Compound 18, 7-[5-(2-Diethylamino-ethoxy)-pyridin-2-ylamino]-3-isopropyl-1-phenyl-1H-[1,6]naphthyridin-2-one]",< 1000,< 1000
100 to 1000,,1000 to 5000,100 to 1000,> 10000,,,,,"CCN(CC)CCOc1ccc(Nc2cc3c(cn2)cc(-c2ccccc2)c(=O)n3-c2cccnc2)nc1 [Compound 84, 7-[5-(2-Diethylamino-ethoxy)-pyridin-2-ylamino]-3-phenyl-1-pyridin-3-yl-1H-[1,6]naphthyridin-2-one]",1000 to 10000,
< 100,,,< 100,,,< 100,,> 10000,"CCN(CC)CCOc1ccc(Nc2cc3c(cn2)cc(-c2c(F)cccc2F)c(=O)n3C2CCOC2)nc1 (single isomer, unassigned) [Compound 143, (S or R)-7-((5-(2-(diethylamino)ethoxy)pyridin-2-yl)amino)-3-(2,6-difluorophenyl)-1-(tetrahydrofuran-3-yl)-1,6-naphthyridin-2(1H)-one]",< 1000,
100 to 1000,> 10000,,,,,100 to 1000,> 5000,,"CCN(CC)CCOc1ccc(Nc2cc3c(cn2)cc(-c2ccccn2)c(=O)n3CC)nc1 [Compound 102, 7-((5-(2-(diethylamino)ethoxy)pyridin-2-yl)amino)-1-ethyl-3-(pyridin-2-yl)-1,6-naphthyridin-2(1H)-one]",1000 to 10000,
< 100,1000 to 10000,,< 100,,,< 100,,,"CCN(CC)CCOc1ccc(Nc2cc3c(cn2)cc(-c2c(Cl)cccc2Cl)c(=O)n3C2CCOC2)nc1 (single isomer, unassigned) [Compound 145, (S or R)-3-(2,6-dichlorophenyl)-7-((5-(2-(diethylamino)ethoxy)pyridin-2-yl)amino)-1-(tetrahydrofuran-3-yl)-1,6-naphthyridin-2(1H)-one]",< 1000,
